Test results taken from publication PMC9227171 (Life, 2022).
Several values for one entry are separate records, joined by “and”; a condition that tells them apart may be missing. Equal entries are not always repeated.

How the values were obtained:
[1] = tested on: protein synthesis in rabbit reticulocyte lysates; assay: Inhibition of protein synthesis in rabbit reticulocyte lysates (luciferase mRNA, luminescence); type: biochemical; details: for impact on protein synthesis: concentration range extending to 50 μM; for inhibition of translation: at 100 μM; for EC50: luciferase mRNA, 30 °C, 90 min, read-out: EC50 (50% inhibitory concentration)
Protocol: The dose–response change in chemoluminescense monitored in the presence of various concentrations of investigational drugs following addition of luciferin allows comparison across compounds.
Assay conditions were employed as recommended by the manufacturer. In summary, reactions (20 μL) contained 80% TNT Quick master mix, 20 µM methionine, and 40 ng/µL luciferase RNA (Promega; L4561) at the indicated concentration of test chemicals. Samples were incubated at 30 °C for 90 min and diluted ten-fold with PBS. An aliquot (2 μL) was mixed with 20 μL of luciferase assay reagent (Promega; E1500) and luminescence was measured with a Turner Designs Model TD-20/20 Luminometer. Depending on the compound evaluated, experiments were repeated two-four times with good agreement between the runs. […] The results are reported as average values including the mean and standard deviation wherever applicable.

[2] = target: SARS-CoV-2 RdRp (nsp12/7/8 complex) (Severe acute respiratory syndrome coronavirus 2, UniProt P0DTD1); assay: Inhibition of SARS-CoV-2 RdRp active complex (RNA extension assay); type: biochemical; details: RdRp-mediated RNA replication, 37 °C, 60 min, 1 μM RdRp complex
yeast 80S ribosomes = assay: Ligand–ribosome binding via fluorescence anisotropy
hCoV-OC43 = assay: Antiviral properties in hCoV-OC43 and VERO E6 cells (data not shown); type: cell-based; details: concentrations ≥200 μM
[3] = target: T1, human serum albumin (HSA) (Homo sapiens, UniProt P02768); assay: HSA binding energetics via isothermal titration calorimetry (ITC); details: for TΔS / ΔG / ΔH: pH 7.4
T1 construct: purchased Millipore Sigma A1887
T1 sequence (P02768 25-609): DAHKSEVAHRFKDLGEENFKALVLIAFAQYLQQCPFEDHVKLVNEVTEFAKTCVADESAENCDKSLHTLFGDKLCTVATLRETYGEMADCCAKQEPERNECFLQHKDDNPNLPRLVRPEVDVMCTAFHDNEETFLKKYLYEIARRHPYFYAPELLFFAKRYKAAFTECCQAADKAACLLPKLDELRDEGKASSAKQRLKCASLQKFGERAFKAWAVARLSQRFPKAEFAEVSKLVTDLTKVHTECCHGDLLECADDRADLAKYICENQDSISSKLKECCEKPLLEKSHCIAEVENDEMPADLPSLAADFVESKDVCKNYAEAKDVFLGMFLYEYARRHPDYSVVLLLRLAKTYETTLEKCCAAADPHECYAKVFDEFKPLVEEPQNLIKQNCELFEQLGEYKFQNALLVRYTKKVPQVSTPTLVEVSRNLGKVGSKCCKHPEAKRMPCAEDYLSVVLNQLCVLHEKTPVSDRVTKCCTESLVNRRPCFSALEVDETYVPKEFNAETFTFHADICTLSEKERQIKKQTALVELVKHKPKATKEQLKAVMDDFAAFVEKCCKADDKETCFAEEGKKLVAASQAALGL
Protocol: The resultant heats are integrated to yield a binding profile (bottom panel) that is fit via nonlinear least squares analysis to a single site model (red line).
The protein was prepared as described in Section 5.1 and dialyzed exhaustively against a buffer comprised of 10 mM sodium phosphate adjusted to pH 7.4. […] Each ITC experiment consisted of thirty consecutive 10.0 µL injections during which the reaction heat is monitored and integrated over a 5.0 min period under continuous stirring. The experimental protocol has been designed to ensure that there is a tenfold excess of ligand in the titration syringe relative to standard protein concentration in the sample cell. The resultant binding isotherms are generated by recording the integrated reaction heats normalized for ligand concentration versus the HSA:ligand ratio. A nonlinear least squares fit of the resultant profile to a single site binding model yields thermodynamic parameters for the HSA–ligand complex including the affinity (Ka), Gibbs free energy (ΔG), enthalpy (ΔH), and entropy (ΔS).

HIV-1 = details: among low molecular weight ATA components ref 39, 43; cited from earlier work
[4] = tested on: protein synthesis in Vero E6 cells; assay: Protein synthesis in cultured cells: puromycin pulse labeling and immunoblotting; type: cell-based, African green monkey
Protocol: Prior to the experiment, Vero E6 cells were seeded at 30,000 cells per cm^2 in 6-well plates in 5% FBS-EMEM. […] Control experiments were conducted in the absence and presence of cycloheximide (1–150 μM) or DMSO. Following incubation with puromycin for 10 min, the medium was quickly removed and cells washed with warm PBS and allowed to recover in drug-free 5% FBS-EMEM for 30 min. Cell pellets collected by trypsinization and centrifugation were stored at −80 °C while awaiting protein preparation and immunoblotting as described below.
Cell lysates were prepared in RIPA (radio-immunoprecipitation) buffer (Sigma; R0278) containing protease inhibitors (Sigma; P8340). Protein concentrations were determined via the Pierce^TM bicinconinic acid (BCA) assay (Thermo Fisher Scientific, Waltham, MA, USA) using bovine serum albumin as a standard. All procedures were performed in accordance with protocols recommended by the manufacturers. For immunoblotting, 8 μg of protein was combined with Laemmli buffer containing 10% β-mercaptoethanol, heated at 95 °C for 5 min and loaded on 8–16% Mini-PROTEAN® TGX™ precast protein gels. Samples were resolved via electrophoresis in Tris-Gly-SDS buffer and transferred to nitrocellulose membranes in Tris-Gly buffer containing 20% methanol at 4–6 V/cm^2 for one hour. Membranes were blocked in 10 mM sodium phosphate buffer containing 150 mM NaCl (pH 7.8), 5% milk and 0.1% TWEEN20 (PBST) at room temperature for at least one hour, then incubated overnight with primary anti-puromycin antibodies (TFS; MABE343 mouse monoclonal antibodies clone 12D10; 1:25,000) at 4 °C. […]
For β-actin staining, the same membranes used for puromycin immunostaining were washed four times for five min with 20 mM Tris-buffered saline containing 500 mM sodium chloride (pH 7.5) and 0.1% TWEEN20 (TBST) and stripped by two rounds of 20- and 10-min washes at 50 °C in glycine buffer (pH 2.2) containing 0.1% SDS (w/v) and 1% TWEEN20. […] The results were quantified with Image J 1.52a software using β-actin staining for each sample as an internal reference.

[5] = ITC, 25.0 °C, listed as Dichlorohexamer

In the case of O=C(O)c1cc(Cc2cc(Cc3cc(Cc4cc(Cl)c(O)c(C(=O)O)c4)c(O)c(C(=O)O)c3)cc(C(=O)O)c2O)cc(Cl)c1O [compound 8], the “impact on protein synthesis” value [1] is reported as “did not impact protein synthesis” and the IC50 [2] is reported as 163 µM and ~163 µM.

In the case of O=C(O)c1cc(Cc2cc(Cc3cc(Cc4cc(Cc5cc(Cc6cc(Cl)c(O)c(C(=O)O)c6)c(O)c(C(=O)O)c5)c(O)c(C(=O)O)c4)cc(C(=O)O)c3O)cc(C(=O)O)c2O)cc(Cl)c1O [compound 11], the Kd (yeast 80S ribosomes; 25 °C, fluorescence anisotropy) is reported as 0.21 ± 0.02 µM, the “affinity (double reciprocal plot)” value (yeast 80S ribosomes; 25 °C, ligand 1 μM, excitation/emission 305/420 nm) is reported as 4.8 × 10 ^6 M^−1 and the Kd (yeast 80S ribosomes; purified yeast ribosomes, discussion value) is reported as about 0.2 µM. For the same compound, the inhibition of translation [1] was about 100%, the inhibition of translation ([1]; signal comparable to background) was “completely inhibited translation” and the EC50 [1] was 28.1 µM. The antiviral properties (hCoV-OC43) was “modest activity”, the Kd ([3]; ITC, 25.0 °C, 10 mM sodium phosphate pH 7.4) was 1 ± 0.1 µM and the “Ka × 10^5” value ([3]; ITC, 25.0 °C, 10 mM sodium phosphate pH 7.4, single site model) was 9.9 ± 0.5 10^5 M^−1. For the same compound, the TΔS ([3]; ITC, 25.0 °C) was -7.1 kcal/mol, the ΔG ([3]; ITC, 25.0 °C) was -8.0 kcal/mol and the ΔH ([3]; ITC, 25.0 °C) was -15.1 kcal/mol. The TΔS [3, 5] was -7.1 ± 0.2 kcal/mol, the ΔG [3, 5] was -8.0 ± 0.2 kcal/mol and the ΔH [3, 5] was -15.1 ± 0.2 kcal/mol. For the same compound, the stoichiometry n ([3]; ITC, per monomeric unit of ATA (Mw 422.34) or per dichlorohexamer (Mw 956)) was 1.0 ±0.0, the ΔΔG ([3]; chlorinated hexamer versus heterogeneous polymeric ATA, HSA binding) was 0.4 kcal/mol and the IC50 [2] was 0.108 µM.

With O=C(O)c1cc(Cc2cc(Cc3cc(Cc4ccc(O)c(C(=O)O)c4)c(O)c(C(=O)O)c3)cc(C(=O)O)c2O)ccc1O [compound 9] the “impact on protein synthesis” value [1] was “did not impact protein synthesis” and the IC50 [2] was 514 µM and ~514 µM.

For O=C(O)c1cc(Cc2cc(Cc3ccc(O)c(C(=O)O)c3)c(O)c(C(=O)O)c2)ccc1O [compound 3], the “activity against HIV-1” value (HIV-1) is given as “most active”.

C[C@@H]1C[C@@H]([C@H](O)CC2CC(=O)NC(=O)C2)C(=O)[C@@H](C)C1 [Cycloheximide] gave an EC50 [1] of 0.106 µM, an activity at 150 µM ([4]; Chlorocebus sabaeus, Vero C1008, 150 uM, read-out: % activity (anti-puromycin/b-actin densitometry)) of -3.99% and an activity at 300 µM ([4]; Chlorocebus sabaeus, Vero C1008, 300 uM, read-out: % activity (anti-puromycin/b-actin densitometry)) of -3.95%. For the same compound, the “concentration that inhibits protein synthesis” value ([4]; puromycin labeling) was 1 µM.

For O=C(O)c1cc(Cc2cc(C(c3ccc(O)c(C(=O)O)c3)c3ccc(O)c(C(=O)O)c3)cc(C(=O)O)c2O)ccc1O [compound 2], the “activity against HIV-1” value (HIV-1) is listed as “most active”.
